Among the data in patent US11072619B2, “Pyrazole[1,5-a] pyrimidine derivatives as kinase JAK inhibitors” (CELON PHARMA S.A., priority 2017, dated 2021) are IC50 values, retold here.

pIC50: −log10 of the molar value.

One experiment addresses Recombinant kinase JAK1 (Homo sapiens (Human), UniProt P23458). The experiment can be described thus: In vitro JAK kinase inhibition assay (ADP-Glo), JAK1. The following applies: 30 μM ATP, peptide IRS-1, averaged. Format: biochemical. The method, then: (§1) In Vitro JAK Kinase Inhibition Assay
(§2) The effects of the compounds of the invention were analysed in vitro using kinase JAK inhibition assay described below.
(§3) Tested compounds were dissolved in 100% DMSO, and obtained stock solutions were serially diluted in the reaction buffer (50 mM Tris pH 7.5, 10 mM MgCl2, 0.25 mM EGTA, 0.1 mM Na3VO4, 0.01% Triton X-100, 2.5 mM DTT). Recombinant kinases JAK1 (ProQinase), JAK2, or JAK3 (Carna Biosciences) were diluted in the dilution buffer (50 mM Tris-HCl pH 7.5, 150 mM NaCl, 10% glycerol, 0.05% Triton X-100, 1 mM DTT) to the final concentration 3 ng/μL (JAK1), 0.1 ng/μL (JAK2), or 0.2 ng/μL (JAK3). 5 μL of obtained solution of the compounds and 5 μL of the solution of respective kinases were added to the well of a 96-well plate. To initiate interaction between tested compounds and an enzyme, the plate was incubated for 10 minutes at 25° C. in a Plate-Thermo-Shaker with orbital stirring at 400 rpm. Wells of a negative control contained all reagents as mentioned above with the exception of tested compounds and kinase, and wells of a positive controls contained all reagents as mentioned above with the exception of tested compounds. Enzymatic reaction was initiated by the addition of 15 μL of the following solution: 5× concentrated reaction buffer (50 mM Tris pH 7.5, 10 mM MgCl2, 0.25 mM EGTA, 0.1 mM Na3VO4, 0.01% Triton X-100, 2.5 mM DTT), water, 30 μM ATP and for particular kinases: JAK1—60 μM peptide IRS-1 (Enzo), JAK2 or JAK3—10 μM peptide IGF-1Rtide (Lipopharm). Then the plate was incubated for 1 hour at 25° C. in a Plate-Thermo-Shaker, with orbital stirring at 400 rpm. Detection of ADP formed in the enzymatic reaction was then performed using ADP-Glo Kinase Assay kit (Promega). For this purpose, to the well of the 96-well plate 25 μL of ADP-Glo Reagent were added, and the plate was incubated for 40 minutes at 25° C. in a Plate-Thermo-Shaker with orbital stirring at 400 rpm. Then to the well of the 96-well plate 50 μL of Kinase Detection Reagent were added and the plate was incubated for 30 minutes at 25° C. in a Plate-Thermo-Shaker with orbital stirring at 400 rpm. After incubation, luminescence intensity was measured using Victor×Light luminometer (Perkin Elmer, Inc.).
(§4) On the basis of luminescence measurement in wells containing tested compounds at various concentrations and in control wells, IC50 values were determined. These values were determined with Graph Pad software v. 5.03, by fitting points of the curve using non-linear regression method. Each compound was tested in at least 6 repetitions (6 wells) on two 96-well plates, using at least 3 wells of each control.
(§5) Averaged results of kinases JAK inhibition activity for selected compounds of the present invention are presented below in Table 1.
On the technique in general: ADP-Glo turns the ADP formed in a reaction into a luminescent signal.

Another experiment deals with Recombinant kinase JAK3 (Homo sapiens (Human), UniProt P52333). The experiment in a line: In vitro JAK kinase inhibition assay (ADP-Glo), JAK3. Format: biochemical. The following applies: 30 μM ATP, peptide IGF-1Rtide, averaged. The method, then: as §1, §2, §3, §4, §5
Recombinant kinase JAK3, sequence (P52333 whole entry): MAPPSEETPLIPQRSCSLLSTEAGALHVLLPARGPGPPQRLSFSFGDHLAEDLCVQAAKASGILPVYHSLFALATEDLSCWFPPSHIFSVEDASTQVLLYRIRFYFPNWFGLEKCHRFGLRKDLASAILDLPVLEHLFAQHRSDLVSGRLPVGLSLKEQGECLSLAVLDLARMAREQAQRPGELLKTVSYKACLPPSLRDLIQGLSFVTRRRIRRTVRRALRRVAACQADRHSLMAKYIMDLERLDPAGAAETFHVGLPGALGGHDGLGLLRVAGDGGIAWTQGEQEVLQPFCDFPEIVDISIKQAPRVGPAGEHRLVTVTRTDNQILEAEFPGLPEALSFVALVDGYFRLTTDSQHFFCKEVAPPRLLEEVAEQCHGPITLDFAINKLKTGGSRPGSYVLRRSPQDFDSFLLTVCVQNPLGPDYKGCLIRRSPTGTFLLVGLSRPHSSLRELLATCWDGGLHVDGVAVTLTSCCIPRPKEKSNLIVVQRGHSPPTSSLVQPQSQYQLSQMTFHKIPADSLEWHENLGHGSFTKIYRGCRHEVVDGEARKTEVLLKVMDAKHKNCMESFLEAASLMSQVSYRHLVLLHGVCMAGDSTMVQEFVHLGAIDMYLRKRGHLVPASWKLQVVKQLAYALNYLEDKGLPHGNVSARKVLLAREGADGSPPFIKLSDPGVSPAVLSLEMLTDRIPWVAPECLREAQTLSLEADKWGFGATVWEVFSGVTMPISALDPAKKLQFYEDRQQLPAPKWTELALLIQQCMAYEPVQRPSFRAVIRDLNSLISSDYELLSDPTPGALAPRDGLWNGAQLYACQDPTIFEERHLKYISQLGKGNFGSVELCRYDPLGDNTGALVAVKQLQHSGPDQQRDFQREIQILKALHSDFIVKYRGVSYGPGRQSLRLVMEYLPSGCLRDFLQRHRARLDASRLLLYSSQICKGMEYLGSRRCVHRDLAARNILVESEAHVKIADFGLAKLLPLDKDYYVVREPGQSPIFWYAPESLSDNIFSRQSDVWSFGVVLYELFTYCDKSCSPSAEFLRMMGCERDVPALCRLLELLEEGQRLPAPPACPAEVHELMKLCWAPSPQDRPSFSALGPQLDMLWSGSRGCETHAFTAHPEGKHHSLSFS
For experiment [1], the system named is TF-1 cells. The experiment in a line: TF-1 cells viability in vitro in the presence of IL-3 (JAK2 activation). Format: cell-based. The following applies: Homo sapiens, 5 ng/mL IL-3, 72 hours, ATPlite, read-out: JAK2 IL3 (EC50, inhibition of viability of TF-1 cells). The method, then:
(§6) Assay for TF-1 Cells Viability In Vitro
(§7) The effects of the activity of the compounds of the invention were tested in vitro using cells viability assay described below.
Tested compounds were dissolved in 100% DMSO, and obtained stock solutions were serially diluted in OptiMEM medium (Reduced Serum Medium-Thermo Fisher Scientific). […] To a well of the 96-well plate 10 μL of the prepared 10× stock solutions of the compounds. Cells on 96-well plates were incubated with the compounds for 72 hours at 37° C., 5% CO2. Subsequently, viability of the cells was measured using ATPlite kit (Perkin Elmer). For this purpose, 50 μL of lysis buffer (mammalian cell lysis solution) were added to a well of the 96-well plate and the plate was incubated for 10 minutes at 25° C. in a plate thermo-shaker with orbital stirring at 600 rpm. Then to a well of the 96-well plate 50 μL of substrate (substrate solution) were added and incubated for 15 minutes at in dark, in a plate thermo-shaker with orbital stirring at 600 rpm. After incubation time, luminescence intensity in a well was measured using Victor×Light luminometer (Perkin Elmer, Inc.).
On the basis of luminescence intensity measurements in well containing tested compounds at various concentrations and in control wells EC50 values were determined. These values were determined with Graph Pad software v. […] Each compound was tested in at least 6 repetitions (6 wells) on two 96-well plates, using at least 3 wells of each control.
A general note: In ATP-based viability assays light output follows the ATP content of the culture.

The subject of experiment [2] is TF-1 cells. The experiment can be described thus: TF-1 cells viability in vitro in the presence of IL-4 (JAK1/JAK3 activation). Format: cell-based. The following applies: Homo sapiens, TF-1; 20 ng/mL IL-4, 72 hours, ATPlite; read-out: JAK1,3 IL4 (EC50, inhibition of viability of TF-1 cells). The method, then:
as §6, §7
Tested compounds were dissolved in 100% DMSO, and obtained stock solutions were serially diluted in OptiMEM medium (Reduced Serum Medium-Thermo Fisher Scientific). TF-1 cells (DSMZ no.: ACC 334) in culture medium (80% RPMI 1640+20% FBS) ad in the presence of 5 ng/mL IL-3 or 20 ng/mL IL-4 were deposited on 96-well plates in the volume of 90 μl per well, 10 thousands of cells per well. To a well of the 96-well plate 10 μL of the prepared 10× stock solutions of the compounds. Cells on 96-well plates were incubated with the compounds for 72 hours at 37° C., 5% CO2. Subsequently, viability of the cells was measured using ATPlite kit (Perkin Elmer). For this purpose, 50 μL of lysis buffer (mammalian cell lysis solution) were added to a well of the 96-well plate and the plate was incubated for 10 minutes at 25° C. in a plate thermo-shaker with orbital stirring at 600 rpm. Then to a well of the 96-well plate 50 μL of substrate (substrate solution) were added and incubated for 15 minutes at in dark, in a plate thermo-shaker with orbital stirring at 600 rpm. After incubation time, luminescence intensity in a well was measured using Victor×Light luminometer (Perkin Elmer, Inc.).
On the basis of luminescence intensity measurements in well containing tested compounds at various concentrations and in control wells EC50 values were determined. These values were determined with Graph Pad software v. 5.03, by fitting points of the curve using non-linear regression method. Each compound was tested in at least 6 repetitions (6 wells) on two 96-well plates, using at least 3 wells of each control.

Experiment [3] deals with STAT6 protein phosphorylation in TF-1 cells. The experiment in a line: STAT6 phosphorylation inhibition in vitro in TF-1 cells with IL-4. Format: cell-based. The following applies: Homo sapiens, IL-4 20 ng/mL, 1 hour, Western blot densitometry. The method, then: Assay of STAT6 Phosphorylation Inhibition In Vitro
The activity of the compounds of the invention was tested using in vitro assay described below.
Tested compounds were dissolved in 100% DMSO, and obtained stock solutions were serially in OptiMEM medium (Reduced Serum Medium-Thermo Fisher Scientific). TF-1 cells (DSMZ no.: ACC 334) in culture medium (80% RPMI 1640+20% FBS) in the presence of IL-4 at 20 ng/mL were sieved on 12-well plates at 900 μl/well, 700 thousands of cells/well. To a well of the 12-well plate 100 μL of obtained 10× solution of the compounds were added. Cells on 12-well plates were incubated with tested compounds for 1 hour at 37° C., 5% CO2. Subsequently the cells were washed with PBS, lysed in RIPA buffer added with EDTA, proteases and phosphatases inhibitors, and incubated for 5 min on ice. Protein concentration was determined using Pierce BCA Protein Assay Kit (Thermo Fisher Scientific). Protein lysates were separated by electrophoresis (SDS-PAGE) on 8% polyacrylamide gels, then wet-transferred on nitrocellulose membrane and tested proteins were detected in accordance with the instructions of antibody manufacturer.
On the basis of the measurement of chemoluminescence intensity densitometric analysis was performed, results obtained for the cells treated with tested compounds at various concentrations were compared with those obtained for control cells, and IC50 values were determined.
These values were determined with Graph Pad software v. 5.03, by fitting points of the curve using non-linear regression method. Each compound was tested in at least 3 repetitions.
(In western blotting, separated proteins are transferred to a membrane and probed.)

Recombinant kinase JAK1, sequence (P23458 whole entry): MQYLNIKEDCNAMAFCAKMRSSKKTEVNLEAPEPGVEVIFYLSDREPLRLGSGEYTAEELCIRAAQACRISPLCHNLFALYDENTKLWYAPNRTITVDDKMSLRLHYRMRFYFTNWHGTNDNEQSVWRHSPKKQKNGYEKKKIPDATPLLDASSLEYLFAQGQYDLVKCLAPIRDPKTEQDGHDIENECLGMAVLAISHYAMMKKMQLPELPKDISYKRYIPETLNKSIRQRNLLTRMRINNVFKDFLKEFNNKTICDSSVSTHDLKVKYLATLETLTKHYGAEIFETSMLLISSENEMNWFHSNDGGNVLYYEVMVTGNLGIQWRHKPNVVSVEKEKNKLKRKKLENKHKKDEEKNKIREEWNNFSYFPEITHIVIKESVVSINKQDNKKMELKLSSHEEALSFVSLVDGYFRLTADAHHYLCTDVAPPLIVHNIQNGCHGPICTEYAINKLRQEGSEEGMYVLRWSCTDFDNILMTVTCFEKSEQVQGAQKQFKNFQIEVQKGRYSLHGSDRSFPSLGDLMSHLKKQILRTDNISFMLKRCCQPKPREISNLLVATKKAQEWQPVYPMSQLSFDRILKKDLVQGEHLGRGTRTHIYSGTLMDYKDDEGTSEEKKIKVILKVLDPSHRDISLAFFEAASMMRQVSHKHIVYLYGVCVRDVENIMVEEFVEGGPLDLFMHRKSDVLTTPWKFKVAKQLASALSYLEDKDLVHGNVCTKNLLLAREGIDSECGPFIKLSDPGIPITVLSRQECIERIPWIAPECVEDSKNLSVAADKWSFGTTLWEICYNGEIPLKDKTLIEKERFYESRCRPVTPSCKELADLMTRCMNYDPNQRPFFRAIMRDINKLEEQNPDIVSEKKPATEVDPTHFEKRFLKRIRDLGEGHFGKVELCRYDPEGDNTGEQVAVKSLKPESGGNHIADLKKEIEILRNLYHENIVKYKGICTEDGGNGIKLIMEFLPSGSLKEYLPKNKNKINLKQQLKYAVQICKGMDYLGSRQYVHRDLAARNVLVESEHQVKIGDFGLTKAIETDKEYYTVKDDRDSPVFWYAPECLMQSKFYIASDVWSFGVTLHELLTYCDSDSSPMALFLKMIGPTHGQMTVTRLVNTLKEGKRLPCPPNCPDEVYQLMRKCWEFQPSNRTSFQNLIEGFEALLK

Turning to `CC1(C)CN(c2ccc(C#N)nn2)CC[C@H]1Nc1c(C(N)=O)cnc2cc(-c3ccnc(N4CCOCC4)c3)nn12` [Example 13, (R)-7-((1-(6-Cyanopyridazin-3-yl)-3,3-dimethylpiperidin-4-yl)amino)-2-(2-morpholinopyridin-4-yl)pyrazolo[1,5-a]pyrimidine-6-carboxamide], the pIC50 is 9.29 at Recombinant kinase JAK1; 9.70 at Recombinant kinase JAK3; 5.95 in the experiment with TF-1 cells [1]; 6.70 with TF-1 cells [2]; 6.67 in experiment [3].
